Legend:
[1] = Thermodynamic aqueous solubility by HPLC (filtration method); assay type: physicochemical; details: for pH: pH of the solubility suspension; for pH (with aqueous solubility): pH of suspension
Protocol: The aqueous thermodynamic solubility of selected salt forms was measured using the filtration method as described in Example 10.
The suspension was equilibrated at 25° C. for 24 hours then the pH was measured. The suspension was then filtered through a glass fiber C filter into a 96 well plate. The filtrate was then diluted by a factor of 101. Quantitation was by HPLC with reference to a standard solution of approximately 0.1 mg/mL in DMSO. Different volumes of the standard, diluted and undiluted sample solutions were injected. The solubility was calculated using the peak areas determined by integration of the peak found at the same retention time as the principal peak in the standard injection.

[2] = Stability on storage at 40° C./75% RH (XRPD, HPLC purity); assay type: physicochemical; details: for physical stability: 6 months of storage at 40° C./75% RH; for stability with respect to solid form and chemical purity: 40° C./75% RH (elevated humidity and temperature); for crystallinity upon storage (XRPD): 40° C./75% RH, no change in solid form; for Purity post 40° C./75% RH: HPLC purity after seventeen days at 40° C./75% RH; for Purity as isolated: HPLC purity pre 40° C./75% RH; for drop in chemical purity: upon storage at 40° C./75% RH
Source text: […] No significant thermal events were seen before degradation began for both the phosphate salt and the 1-hydroxy-2-naphthoate salts.

[3] = Pharmacokinetics in rat after IV and PO administration; assay type: in vivo, male Sprague-Dawley rats; details: mean ± SD
Protocol: Compound I was used in the rat investigation. An intravenous (IV) and oral (PO) dose of Compound I (1.0 and 10 mg/kg, respectively) was prepared. The IV dose was solubilized in 50% PEG300 to yield a final concentration of 1.0 mg/mL with a final pH of 5.13. The PO dose was suspended in 0.5% methylcellulose at a concentration of 2.0 mg/mL with a final pH of 2.70.
(§1) A total of six male Sprague-Dawley rats (n=3/dosing group) from Charles River Laboratories (Hollister, Calif.), three male beagle dogs from Marshall BioResources (North Rose, N.Y.) and three male rhesus monkeys were utilized. […]
(§2) All animals were dosed based on individual weights with a PO gavage volume of 5.0 mL/kg and an IV bolus dose volume of 1.0 mL/kg. […] At collection times, urine volume and water consumption was recorded. […]
(§3) Plasma and urine samples were analyzed for Compound I concentration using a liquid chromatography tandem mass spectrometry (LC/MS/MS). […] The peak areas of the m/z 411→250 product ion (Compound I) were measured against those of the m/z 470→342 product ion (N-(2-(5-chloropyridin-2-ylcarbaomoyl)-4-methoxyphenyl)-4-(N,N-dimethylcarbamimidoyl)-2-fluorobenzamide) in positive ion mode. […]
(§4) Sample Compound I concentrations below the lower limit of quantitation (LLQ) were reported as <0.500 ng/mL. […]

[4] = Pharmacokinetics in dog after IV and PO administration; assay type: in vivo, male beagle dogs; details: PO 5 mg/kg, dose-normalized AUC(0-inf), mean ± SD
Protocol: (§5) For the dog and monkey study, Compound I was also used. An IV and PO dose of Compound I (1.0 and 5.0 mg/kg, respectively) was prepared. The IV dose was formulated similarly to that used in the rat study (50% PEG300 in water). The PO dose was suspended in 0.5% methylcellulose at a concentration of 1.0 mg/mL with a final pH of approximately 3.50.
as §1, §2, §3, §4

[5] = Pharmacokinetics in monkey after IV and PO administration; assay type: in vivo, male rhesus monkeys; details: PO 5 mg/kg, dose-normalized AUC(0-inf), mean ± SD
Protocol: as §5, §1, §2, §3, §4

[6] = Thermodynamic aqueous solubility by HPLC (ultracentrifugation method); assay type: physicochemical
Protocol: The physical chemical properties of Forms A and B were determined according to the procedures below and the data are summarized in Table 12.
The mixture was allowed to equilibrate for at least 48 hours at 37° C. under mild agitation. At each 24-48 hour interval, an aliquot was removed and the solution was separated from the solid via ultracentrifugation at >60,000 rpm for 20 min and then analyzed by HPLC for the concentration of the compound in the supernatant. Upon equilibration (concentration plateau is reached), the concentration was reported as solubility. This method is the preferred method in determining solubility as it attains the equilibrium and is measurement of the thermodynamic solubility.

[7] = Gravimetric Vapour Sorption (GVS); assay type: physicochemical; details: for Hygroscopicity: moisture absorbed by weight: between 0 and 90% relative humidity; for physical stability after moisture exposure (XRPD pre- and post-GVS): exposed up to 90% RH at 25° C.
Protocol: Sorption isotherms were obtained using a SMS HT-DVS moisture sorption analyser by Surface Measurement Systems Limited, Middlesex, UK, controlled by SMS Analysis Suite software. The sample temperature was maintained at 25° C. by the instrument controls. The humidity was controlled by mixing streams of dry and wet nitrogen, with a total flow rate of 400 mL/min. The relative humidity was measured by a calibrated optical dew point transmitter (dynamic range of 0.5-100% RH), located near the sample. The weight change, (mass relaxation) of the sample as a function of % RH was constantly monitored by the microbalance (accuracy±0.005 mg).
Typically 5-20 mg of sample was placed in a tared mesh stainless steel liner within a stainless steel pan under ambient conditions. The sample was loaded and unloaded at 40% RH and 25° C. (typical room conditions).
A moisture sorption isotherm was performed as outlined in Table 13 (2 scans giving 1 complete cycle). The standard isotherm was performed at 25° C. at 10% RH intervals over a 0.5-90% RH range.
The sample was recovered after completion of the isotherm and re-analysed by XRPD.

[8] = pKa determination (Sirius GlpKa); assay type: physicochemical; details: 25° C.
Protocol: Data were collected on a Sirius GlpKa instrument by Sirius Analytical Ltd., UK with a D-PAS attachment. Measurements were made at 25° C. in aqueous solution by UV and in methanol water mixtures by potentiometry. The titration media was ionic-strength adjusted (ISA) with 0.15 M KCl (aq). The values found in the methanol water mixtures were corrected to 0% co-solvent via a Yasuda-Shedlovsky extrapolation. The data were refined using Refinement Pro software v1.0. Prediction of pKa values was made using ACD pKa prediction software v9.

[9] = Log P and Log D determination (potentiometric titration, octanol:ISA water); assay type: physicochemical; details: octanol/ionic-strength adjusted (ISA) water
Source text: Data were collected by potentiometric titration on a Sirius GlpKa instrument using three ratios of octanol:ionic-strength adjusted (ISA) water to generate Log P, Log Pion, and Log D values. The data were refined using Refinement Pro software v1.0. Prediction of Log P values was made using ACD v9 and Syracuse KOWWIN™ v1.67 software by Syracuse Research Corp., Syracuse, N.Y., USA.

[10] = Table 8, filtration method, water, 25° C., 24 hours
[11] = listed as 1-Hydroxy-2-naphthoate 2-5

Row | Structure (SMILES) | physical stability [2] | Aqueous solubility [1, 10] | pH ([1]; Table 8) | stability with respect to solid form and chemical purity [2] | crystallinity upon storage (XRPD) [2] | pH of saturated solution [6] | Aqueous Solubility (Ultracentrifugation Method) ([6]; in simulated gastric fluid) | Aqueous Solubility (Ultracentrifugation Method) ([6]; in simulated intestinal fluid) | Aqueous Solubility (Ultracentrifugation Method) ([6]; in water) | Hygroscopicity: moisture absorbed by weight [7] | physical stability after moisture exposure (XRPD pre- and post-GVS) [7] | hygroscopicity (GVS) [7] | other results
1 | O=C(NCc1cn(-c2ccc(-n3ccccc3=O)cc2)cn1)c1ccc(Cl)s1 [Compound I, 5-chloro-N-((1-(4-(2-oxopyridin-1(2H)-yl)phenyl)-1H-imidazol-4-yl)methyl)thiophene-2-carboxamide] | physically stable |  |  |  |  |  |  |  |  |  |  |  | Aqueous solubility ([1]; Table 8, filtration method, water, 25° C., 24 hours, listed as Free base): 0.0008 mg/mL; pH ([1]; Table 8, listed as Free base): 7.8; Dose excreted unchanged in urine ([3]; IV 1 mg/kg): 0.248 ± 0.019%; AUC/D ([3]; PO 10 mg/kg, dose-normalized AUC(0-inf)): 6859 ± 1249 kg·h/mL; AUC/D [4]: 1095 ± 295 kg·h/mL; AUC/D [5]: 8430 ± 3449 kg·h/mL
2 | O=C(NCc1cn(-c2ccc(-n3ccccc3=O)cc2)cn1)c1ccc(Cl)s1 [Phosphate Form 3] |  | 6.9 mg/mL | 2.2 | stable | loss of crystallinity |  |  |  |  |  |  |  | pH (with aqueous solubility) ([1]; salts from 100-mg maturation experiments, listed as 2-4): pH = 2.18; Aqueous solubility ([1]; salts from 100-mg maturation experiments, water, listed as 2-4): 6.9 mg/mL; Purity post 40° C./75% RH ([2]; listed as Phosphate 2-4): 97.3%; Purity as isolated ([2]; listed as Phosphate 2-4): 98.0%; drop in chemical purity [2]: 0.7%
3 | O=C(NCc1cn(-c2ccc(-n3ccccc3=O)cc2)cn1)c1ccc(Cl)s1 [Mesylate Form A] | physically stable | 5.1 mg/mL | 1.8 |  |  | 3.3 | 1.3 mg/mL in simulated gastric | 0.02 mg/mL in simulated | 2.0 mg/mL in water | Absorbs approximately 2.5% | good physical stability |  | solubility at 24 h ([1]; water, 25 °C, pH 1.8, water, thermodynamic from solid, at pH 1.8): 5100 µg/mL; GVS uptake ([7]; at 90% RH): 2.8 wt %; hysteresis in GVS ([7]; listed as mesylate salt): no hysteresis evident; pKa [8]: 4.46; logP [9]: 2.25; logD ([9]; pH 7.4): 2.85

Further lines, with some results ahead:

Row | physical stability [2] | Aqueous solubility [1, 10] | pH ([1]; Table 8) | stability with respect to solid form and chemical purity [2] | crystallinity upon storage (XRPD) [2] | pH of saturated solution [6] | Aqueous Solubility (Ultracentrifugation Method) ([6]; in simulated gastric fluid) | Aqueous Solubility (Ultracentrifugation Method) ([6]; in simulated intestinal fluid) | Aqueous Solubility (Ultracentrifugation Method) ([6]; in water) | Hygroscopicity: moisture absorbed by weight [7] | physical stability after moisture exposure (XRPD pre- and post-GVS) [7] | hygroscopicity (GVS) [7] | Structure (SMILES) | other results
4 |  |  |  |  |  | 2.7 | 12 mg/mL in simulated gastric | 0.06 mg/mL in simulated | 8.5 mg/mL in water | Absorbs approximately 2.5% | good physical stability |  | O=C(NCc1cn(-c2ccc(-n3ccccc3=O)cc2)cn1)c1ccc(Cl)s1 [Mesylate Form B] | 
5 |  | 4.1 mg/mL | 2.0 | stable |  |  |  |  |  |  |  | Neither salts showed hygroscopicity | O=C(NCc1cn(-c2ccc(-n3ccccc3=O)cc2)cn1)c1ccc(Cl)s1 [Phosphate Form 2] | pH (with aqueous solubility) ([1]; salts formed under reflux conditions, listed as Phosphoric acid MeCN): pH = 2.00; Aqueous solubility ([1]; salts formed under reflux conditions, water, listed as Phosphoric acid MeCN): 4.1 mg/mL
6 |  | 0.05 mg/mL | 6.0 | stable | loss of crystallinity |  |  |  |  |  |  | Neither salts showed hygroscopicity | O=C(NCc1cn(-c2ccc(-n3ccccc3=O)cc2)cn1)c1ccc(Cl)s1 [1-Hydroxy-2-naphthoate Form 1] | pH (with aqueous solubility) ([1]; salts formed under reflux conditions, listed as 1-hydroxy-2-napthoic acid MeCN): pH = 5.99; Aqueous solubility ([1]; salts formed under reflux conditions, water, listed as 1-hydroxy-2-napthoic acid MeCN): 0.044 mg/mL; pH (with aqueous solubility) ([1]; salts from 100-mg maturation experiments, listed as 2-5): pH = 6.50; Aqueous solubility ([1]; salts from 100-mg maturation experiments, water, listed as 2-5): 0.068 mg/mL; Purity post 40° C./75% RH [2, 11]: 97.7%; Purity as isolated [2, 11]: 98.2%; drop in chemical purity ([2]; listed as 1-hydroxy-2-naphthoate salt): 0.5%; physical stability after moisture exposure (XRPD pre- and post-GVS) ([7]; listed as 1-hydroxy-2-naphthoate salt of Compound I): substantially stable; hysteresis in GVS ([7]; listed as 1-hydroxy-2-naphthoate salt Form 1): showed any hysteresis

Source: patent publication US8530501B2, “Salts and crystalline forms of a factor Xa inhibitor” (Millennium Pharmaceuticals, Inc., priority 2009, dated 2013)
